In patent publication US12201848B2, “Device and methods for use in removal of bio-film and treatment of halitosis” (priority 2016, dated 2025):
“Also recorded” adds a separate entry of the source.

Columns and labels:
[1] = tested on: Porphyromonas Gingivalis and Prevotella Intermedia; assay: Lethal photosensitization of oral pathogens by methylene blue and red-filtered halogen light (colony count); format: cell-based; settings: for Percent of Living Bacteria: mean of both species +/- SD
Experimental: Suitable stain dosages for providing lethal sensitization of oral pathogens are determined in vitro by the following procedure. An objective is to determine the minimum duration of light exposure and minimum agent dilution required to achieve at least a 50% reduction in bacteria counts. Experimental tests are performed on two common pathogens using a continuously working, high intensity, red filtered halogen lamp. Red light from the filtered halogen lamp is transmitted through a flexible light guide to radiate downwardly onto petri dishes containing samples of live bacteria of species Porphyromonas Gingivalis and Prevotella Intermedia using the protocols described below. Bacteria. Prevoltella Intermedia is isolated from patient sample material, identified in the laboratory using standard diagnostic test systems (Remel Inc., Lenexa, Kans., USA) and is maintained by twice-weekly subculture in thioglycollate medium (Becton Dickinson and Co, Sparks, Md., USA). P. gingivalis ATCC 33277 obtained from Remel Inc., is maintained by a twice-weekly subculture on CDC anaerobe blood agar (Becton Dickinson and Co, USA) and in thioglycollate medium (Becton Dickinson and Co, USA). Light Source. The source for light energy is a continuously working, high intensity halogen lamp having a built-in 250-Watt quartz halogen light source, model I-250 supplied by Medithon, New York, N.Y., USA. Such lights are customarily employed for ear, nose or throat procedures. The light is transmitted through a flexible light guide and filtered to maintain maximum energy output at wavelengths in the vicinity of about 650 nm using a broadband red filter (Edmund Optics Inc., Barrington, N.J., USA). The light output power density measured at 3 cm distance from the end of the light guide with filter is about 50 milliwatts/cm2. Photosensitizer. […] Lethal photosensitization of P. Intermedia. Petri dishes containing CDC anaerobe blood agar (Becton Dickinson and Co, USA) are inoculated with 0.5 ml of broth containing 5×10^5 CFU/ml and left closed at room temperature for about 10 minutes to let the broth penetrate the agar media. […] Only plates with concentrations of 0.01%, and 0.025% are used in the experiment with 20 min light exposure. Four plates are used for each experiment. […] The controls are covered to protect them from ambient light. […] A total of 108 subcultures is used for the experiment. Plates are incubated in anaerobic conditions in the jars using anaerobic pack kits (BBL GasPak Plus, Becton Dickinson and Co, Sparks, Md., USA) at 37° C. for 24 hours. Samples of the resulting culture growth are taken from each plate with sterile […] standard loop, dispensed in 1 ml of sterile NS and placed at the same media. Cultures are incubated at anaerobic conditions at 37° C. for another 24 hours, and after that the resulting colony count is performed on each plate. Lethal photosensitization of P. Gingivalis. Serial dilutions of the P. gingivalis culture are prepared from the initial culture preserved on plates using 1:L sterile standard loop (Becton Dickinson and Co, USA) and sterile NS. A Vitek calorimeter (Hach Company, Loveland, Colo., USA) is used to achieve a final concentration of about 5×10^3 CFU/ml from an initial 0.5 standard McFarland suspension of 10^8 CFU/ml. Plates containing CDC anaerobic blood agar (Becton Dickinson and Co, USA) are inoculated with the resulting suspension using sterile 10:L standard loops (Becton Dickinson and Co, USA). […] Plates are also incubated at 37° C. in the tightly closed jars supplied with anaerobic pack kits (BBL GasPak Plus, Becton Dickinson and Co, USA) for 24 hours, and the resulting colony count is performed on each plate.

P. gingivalis ATCC 33277 = assay: Lethal photosensitization of P. Gingivalis (colony count); format: cell-based
Experimental: Suitable stain dosages for providing lethal sensitization of oral pathogens are determined in vitro by the following procedure. An objective is to determine the minimum duration of light exposure and minimum agent dilution required to achieve at least a 50% reduction in bacteria counts. Experimental tests are performed on two common pathogens using a continuously working, high intensity, red filtered halogen lamp. Red light from the filtered halogen lamp is transmitted through a flexible light guide to radiate downwardly onto petri dishes containing samples of live bacteria of species Porphyromonas Gingivalis and Prevotella Intermedia using the protocols described below. Bacteria. Prevoltella Intermedia is isolated from patient sample material, identified in the laboratory using standard diagnostic test systems (Remel Inc., Lenexa, Kans., USA) and is maintained by twice-weekly subculture in thioglycollate medium (Becton Dickinson and Co, Sparks, Md., USA). P. gingivalis ATCC 33277 obtained from Remel Inc., is maintained by a twice-weekly subculture on CDC anaerobe blood agar (Becton Dickinson and Co, USA) and in thioglycollate medium (Becton Dickinson and Co, USA). Light Source. […] The light output power density measured at 3 cm distance from the end of the light guide with filter is about 50 milliwatts/cm2. […]

## CN(C)c1ccc2nc3ccc(=[N+](C)C)cc-3sc2c1 [methylene blue]
[1]; 0.05% methylene blue alone
  reduction of bacteria without exposure to light: insignificant
[1]; either species, any concentration of methylene blue
  difference between exposure for 10 and 20 minutes: No statistically significant difference
[1]; methylene blue 0.001% or 0.025%, without halogen light
  killing of bacteria without halogen light: nor concentrations of methylene blue of 0.001% or 0.025%, without halogen light, appeared to be effective in killing bacteria
[1]; methylene blue 0.01% or higher, exposure less than 10 minutes, accumulated energy 30 J/cm2, both species
  bactericidal effect with red-filtered light: bactericidal effect
[1]; methylene blue 0.01%, exposure to red light 0
  Percent of Living Bacteria: 70 +/− 11%
[1]; methylene blue 0.01%, red light 1 min
  Percent of Living Bacteria: 73 +/− 6%
[1]; methylene blue 0.01%, red light 5 min
  Percent of Living Bacteria: 69 +/− 7%
[1]; methylene blue 0.01%, red light 10 min
  Percent of Living Bacteria: 55 +/− 6%
[1]; methylene blue 0.01%, red light 20 min
  Percent of Living Bacteria: 51 +/− 4%
[1]; methylene blue 0.025%, exposure to red light 0
  Percent of Living Bacteria: 75 +/− 14%
[1]; methylene blue 0.025%, light exposure 5 min
  reduction in bacteria counts: Significant reduction in bacteria counts
[1]; methylene blue 0.025%, red light 1 min
  Percent of Living Bacteria: 67 +/− 4%
[1]; methylene blue 0.025%, red light 5 min
  Percent of Living Bacteria: 47 +/− 6%
[1]; methylene blue 0.025%, red light 10 min
  Percent of Living Bacteria: 48 +/− 8%
[1]; methylene blue 0.025%, red light 20 min
  Percent of Living Bacteria: 49 +/− 5%
[1]; methylene blue 0.025%, time intervals 5 and 10 min
  killing with duration of red light: statistically significant increased killing with duration
[1]; methylene blue 0.05% and higher, light exposure 1 min
  reduction in bacteria counts: Significant reduction in bacteria counts
[1]; methylene blue 0.05%, exposure to red light 0
  Percent of Living Bacteria: 68 +/− 12%
[1]; methylene blue 0.05%, red light 1 min
  Percent of Living Bacteria: 53 +/− 10%
[1]; methylene blue 0.05%, red light 5 min
  Percent of Living Bacteria: 32 +/− 7%
[1]; methylene blue 0.05%, red light 10 min
  Percent of Living Bacteria: 32 +/− 9%
[1]; methylene blue 0.05%, time intervals 1 min, 5 min and 10 min
  killing with duration of red light: statistically significant increased killing with duration
[1]; methylene blue 0.075% and 0.1%, light exposure 1 min, both cultures
  bacterial count reduction: statistically significant bacterial count reduction
[1]; methylene blue 0.075% and 0.1%, no red light
  bactericidal effect without light exposure: significant bactericidal effect; also recorded: significantly bactericidal
[1]; methylene blue 0.075%, exposure to red light 0
  Percent of Living Bacteria: 51 +/− 10%
[1]; methylene blue 0.075%, red light 1 min
  Percent of Living Bacteria: 45 +/− 5%
[1]; methylene blue 0.075%, red light 5 min
  Percent of Living Bacteria: 26 +/− 5%
[1]; methylene blue 0.075%, red light 10 min
  Percent of Living Bacteria: 25 +/− 5%
[1]; methylene blue 0.1%, exposure to red light 0
  Percent of Living Bacteria: 35 +/− 9%
[1]; methylene blue 0.1%, red light 1 min
  Percent of Living Bacteria: 39 +/− 12%
[1]; methylene blue 0.1%, red light 5 min
  Percent of Living Bacteria: 28 +/− 9%
[1]; methylene blue 0.1%, red light 10 min
  Percent of Living Bacteria: 24 +/− 4%
P. gingivalis ATCC 33277; methylene blue 0.01%, no light, P. gingivalis culture
  bacterial killing without light exposure: statistically significant bacterial killing
P. gingivalis ATCC 33277; methylene blue 0.1%
  bactericidal effect on P. gingivalis: bactericidal effect
